These results are taken from patent US9907852B2, “Anticancer agent and side-effect-alleviating agent” (National University Corporation University of Toyama, priority 2014, dated 2018).

The test system of data set [1] is Human pancreatic cancer cell Suit 2. The experiment in a line: Uptake of gadolinium DTPA in tumor tissue by MRI, blood stream in tumor (Test Example 1). It is filed as in vivo, mice. To be noted: after intravenous injection of gadolinium DTPA; after 4 weeks of treatment. On the procedure: (§1) Human pancreatic cancer cell Suit 2 (1×10^6 cells) was transplanted subcutaneously to BALB/cAJc1-nu/nu mice (CLEA Japan, Inc.) . On 21th day after the transplantation, the transplanted mice were divided into 4 groups, that is, (a) an untreated group, (b) a group to which a Burdock Fruit extract was administered, (c) a group to which bevacizumab was administered, and (d) a group to which gemcitabine was administered, and the treatment was continued for 4 weeks. The Burdock Fruit extract of Example 1 was mixed into feed at a rate of 0.5% (w/w) and the resultant was given to mice. The ingestion of feed was 3 to 5 g a day for a mouse, from which the intake of arctigenin was calculated as […]. Bevacizumab, as Avastin 100 mg/4 ml for intravenous injection (Chugai Pharm. Co.) , was intraperitoneally injected at a dose of 5 mg/kg once a week. As gemcitabine, an intravenous drip preparation of gemcitabine (Eli Lilly and Co.) was intraperitoneally injected at a dose of 100 mg/kg twice a week.
After 4 weeks from the starting of treatment, the uptake of gadolinium DTPA in the mouse tumor tissue was evaluated in the respective groups. […] From this photograph the signal intensity of gadolinium DTPA in the tumor tissue was measured. […]

For data set [2], the system named is Human colorectal cancer cells LS174T. As to the kind of experiment: Proportion of cancer stem cells in tumor by flow cytometry, LS174T (Test Example 7). In kind it is in vivo, mice. To be noted: after termination of the treatment test (4 weeks). On the procedure: (§2) On the 14th day, the transplanted mice were divided into 4 groups, that is, (a) an untreated group, (b) a bevacizumab-administered group, (c) a Gogoshi extract-administered group, and (d) a group of combined administration of a Burdock Fruit extract and bevacizumab (combined administration group), and the treatment was continued for 4 weeks. When a Burdock Fruit extract was administered, 250 mg/kg of Burdock Fruit extract (25 mg/kg as arctigenin) of Example 1 was orally administered 6 times a week. Bevacizumab, as Avastin for intravenous drip injection (100 mg/4 ml) (Chugai Pharm. Co.), was intraperitoneally injected at a dose of 5 mg/kg once a week.
The cancer cells were then recovered from the tumor tissue, and using the double positive markers, CD133 and CD44, the proportion of CD133^+, CD44^+ cells in tumor after termination of the treatment test was evaluated by means of a FACS ARIA II flow cytometer (BD bioscience).

For data set [3] the test system is unchanged. As to the kind of experiment: Tumor weight in mice transplanted subcutaneously with LS174T (Test Example 7). In kind it is in vivo. To be noted: after 4 weeks; extract 250 mg/kg oral 6 times a week, bevacizumab 5 mg/kg i.p. once a week. On the procedure:
as §2
After termination of the therapeutic test, the tumor weight was measured in the respective groups. As results, the tumor weight after termination of the therapeutic test was as follows: 2.51 g in the untreated group, 1.33 g in the bevacizumab administered group, 1.25 g in the Burdock Fruit extract administered group, and 0.68 g in the combined administration group. Accordingly, in any group including the bevacizumab administered group, the Burdock Fruit extract administered group and the combined administration group, the inhibition of increase of tumor weight was recognized compared with the untreated group. […]

Data set [4] has as its system tumor tissue. The experiment in a line: Survival period after 5 weeks of treatment (Test Example 2). In kind it is in vivo, mice. Conditions: treatment terminated after 5 weeks, survival followed up. On the procedure:
For tumor tissue, a single administration of a Burdock Fruit extract, a single administration of bevacizumab and a combined administration of a Burdock Fruit extract and bevacizumab were performed over a period of 5 weeks. […] Thus, the suppression effect on ulcer generation in tumor was recognized in the Burdock Fruit extract-administered group and the concomitantly administered group compared with that in the untreated group and the bevacizumab-administered group. In the bevacizumab-administered group, the inhibitory effect for ulcer generation was recognized in comparison with the untreated group, though it was temporal. This effect is considered to be an inhibitory activity of bevacizumab for angiogenesis. On the other hand, when the combined administration of a Burdock Fruit extract in addition to bevacizumab, the inhibitory effect on ulcer generation was raised. This is considered that, in addition to the improved effect for blood stream in tumor by a single preparation of bevacizumab, the blood stream was further improved by combined administration of a Burdock Fruit extract which suppressed an occurrence of a hypoxia and undernutritional region and further suppressed angiogenesis. Thus, since the combined administration of arctigenin can markedly reduce a hypoxia and undernutritional region, it is expected to suppress the malignant transformation of cancer. […]

Data set [5] relates to tumor tissue. As to the kind of experiment: Occurrence of ulcer in the tumor tissue (Test Example 2). To be noted: rate of mice which generated ulcer in the tumor; administration over 5 weeks. In kind it is in vivo. From the text:
In the course of the growth of tumor, nutrition and oxygen have to be supplied over the grown entire tumor tissue through the blood vessels. In most of tumor, however, it is considered that these are not supplied sufficiently because of immature angioplasty to cause a partial necrosis of tissue and an ulcerous portion occurs. In this situation, in order to inspect the effect of normalization of intra-tumor blood stream by the above described Burdock Fruit extract, the occurrence of ulcer in the tumor tissue after the respective treatments was observed.
For tumor tissue, a single administration of a Burdock Fruit extract, a single administration of bevacizumab and a combined administration of a Burdock Fruit extract and bevacizumab were performed over a period of 5 weeks. […] Thus, the suppression effect on ulcer generation in tumor was recognized in the Burdock Fruit extract-administered group and the concomitantly administered group compared with that in the untreated group and the bevacizumab-administered group. In the bevacizumab-administered group, the inhibitory effect for ulcer generation was recognized in comparison with the untreated group, though it was temporal. This effect is considered to be an inhibitory activity of bevacizumab for angiogenesis. […]

In data set [6] the test system is Human pancreatic cancer cell Suit 2. The experiment in a line: Tumor size in mice transplanted subcutaneously with Suit 2 (Test Example 1). In kind it is in vivo. To be noted: after 4 weeks from the starting of treatment; extract 0.5% (w/w) in feed, bevacizumab 5 mg/kg i.p. once a week, gemcitabine 100 mg/kg i.p. twice a week. On the procedure:
as §1
The average tumor size after 4 weeks from the starting of treatment in the respective groups was as follows: (a) 228 mm^2 in the untreated group; (b) 189 mm^2 in the Burdock Fruit extract administered group; (c) 56 mm^2 in the bevacizumab administered group to which was; and (d) 68 mm^2 in the gemcitabine administered group.

Data set [7] in a line: Toxicity test by concomitant repeated-dose administration (Test Example 8). In kind it is in vivo, mice. Conditions: after 7 weeks. The procedure:
SIX SCR-ICR mice (female of 6 weeks of age) (SLC Co.) were used in each of 4 groups, that is, (a) untreated group, (b) gemcitabine administered group, (c) Burdock Fruit extract administered group, and (d) group of combined administration of Burdock Fruit extract and gemcitabine (combined administration group). In each group, each of the therapeutic agents was administered continuously for a period of 7 weeks.
Burdock Fruit extract, 250 mg/kg prepared in Example 1 (25 mg/kg as arctigenin) , was orally administered 5 times a week. As gemcitabine, an intravenous drip preparation of gemcitabine (Eli Lilly and Co.) was used, and 100 mg/kg was intraperitoneally administered once a week.
During the term of administration for about 7 weeks, measurement of body weight, observation of skin and oral state, as well as observation of feces were practiced every 5 days. As a result, there was recognized no symptom which reminded any side effect such as inflammation in skin and mucous membrane, depilation or diarrhea in all of the administered groups. In addition, generally there was no difference of significance in body weight which is an indicator of nausea, loss of appetite, side effect in digestive system, and the like.
After termination of administration, the mice were anesthetized deeply, subjected to thoracotomy and complete blood drawing from heart. In addition, kidney, liver, spleen and lung were recovered, the weight was measured.
In addition, a hemocytic and biochemical examination was carried out using the collected blood.

Data set [8] concerns Human pancreas cancer cells Miapaca-2 cells. The experiment in a line: Survival in orthotopic graft model of pancreas cancer (Test Example 4). It is filed as in vivo, mice. The procedure: Human pancreas cancer cells Miapaca-2 cells were suspended in a highly concentrated Matrigel solution (BD bioscience) at 5×10^6 cells/50 μl. A female BALB/cAJcl-nu/nu mice (8 weeks of age) (CLEA Japan, Inc.) were subjected to laparotomy under anesthesia, the above-prepared cell suspension was poured into pancreatic tissue and solidified, followed by suture and closing.
The mice after transplantation were divided into 4 groups (7 mice in one group), that is, an untreated group (Non treat); a group to which 250 mg/kg of Burdock Fruit extract (Kracie Pharm., GBS-01) containing 10% of arctigenin was orally administered every day (GBS-01); a group which was intraperitoneally given 150 mg/kg of gemcitabine (Eli Lilly & Co.) twice a week (Gemcitabine); and a group of combined administration of them(Combination), and the treatment was continued until all of the mice died.
The survival rate was calculated according to the Kaplan-Mayer method by making a curve of survival rate and calculating the median of survival rate (MST) (GraphPad-PRISM 6.2, MDF Co.). The significant difference was evaluated by means of Logrank (Mantel-COX) and Gehan-Breslow-Wilcoxon test. The calculated results were shown on an upper graph of FIG. 5.

In data set [9] the test system is Human pancreatic cancer cells Miapaca-2. As to the kind of experiment: Tumor weight in mice transplanted subcutaneously with Miapaca-2 (Test Example 3). In kind it is in vivo. To be noted: after 4 weeks; extract 250 mg/kg oral 5 times a week, gemcitabine 150 mg/kg i.p. twice a week. The procedure: Human pancreatic cancer cells Miapaca-2 (ATCC CRL 1420) (5×10^6 cells/200 μl) were transplanted subcutaneously under the armpit of BALB/cAJcl nu/nu mice (CLEA Japan, Inc.) . After feeding for about 2-3 weeks, those of which cancer grew to about 100 mm^3 were selected and employed as the subject mice to be treated. The subject mice of treatment were divided into 4 groups, that is, (a) an untreated group, (b) a group administered gemcitabine, (c) a group administered a Burdock Fruit extract, and (d) a group administered in combination with a Burdock Fruit extract and gemcitabine (combined administration group), and the treatment was continued for 4 weeks. […] After termination of the therapeutic test, the tumor weight was measured in the respective groups.

Data set [10] shares this test system. As to the kind of experiment: Proportion of the cancer stem cells in tumor by flow cytometry, Miapaca-2 (Test Example 3). It is filed as in vivo, mice. To be noted: after the therapeutic test (4 weeks). The procedure: Human pancreatic cancer cells Miapaca-2 (ATCC CRL 1420) (5×10^6 cells/200 μl) were transplanted subcutaneously under the armpit of BALB/cAJcl nu/nu mice (CLEA Japan, Inc.) . After feeding for about 2-3 weeks, those of which cancer grew to about 100 mm^3 were selected and employed as the subject mice to be treated.
The subject mice of treatment were divided into 4 groups, that is, (a) an untreated group, (b) a group administered gemcitabine, (c) a group administered a Burdock Fruit extract, and (d) a group administered in combination with a Burdock Fruit extract and gemcitabine (combined administration group), and the treatment was continued for 4 weeks. The Burdock Fruit extract, 250 mg/kg prepared in Example 1 (25 mg/kg or more as arctigenin), was orally administered everyday (for 5 times a week). As gemcitabine, an intravenous drip preparation of gemcitabine (Eli Lilly and Co.) was used, and 150 mg/kg was intraperitoneally given twice a week.
The cancer cells were recovered from the tumor tissue after termination of the treatment test, and using the triple positive markers, CD24, CD44 and ESA (CD326) as well as the double positive markers, CD133 and CD44, and the proportion of CD44^+, CD24^+, CD326^+ cells (triple positive) and CD133^+, CD44^+ cells (double positive) was evaluated. In the evaluation, a FACS ARIA II flow cytometer (BD bioscience) was used.

Setting [11] is: gemcitabine 100 mg/kg i.p. once a week.

Turning to bevacizumab, the “increase of signal intensity in the central part of tumor tissue (in words)” value in data set [1] is reported as “tendency of increasing”. Further, the “proportion of CD133+, CD44+ cells (double positive) in tumor” value in [2] came out at 0.552%. The tumor weight in data set [3] was 1.33 g. The 50% survival period in [4] is given as 107 days. In addition, the “duration until the generation of ulcer reached 50%” value in data set [5] was found to be 10 days. This molecule displayed an average tumor size in data set [6] of 56 mm^2.
For the molecule `Nc1ccn([C@@H]2O[C@H](CO)[C@@H](O)C2(F)F)c(=O)n1` [gemcitabine], the “increase of signal intensity in the central part of tumor tissue (in words)” value in data set [1] was “no increase”. Also, in [7], the “hematocrit value (in words)” value is given as “lowering” and the “hemoglobin value (in words)” value was “lowering”. Also, in data set [7] (setting [11]), the “weight/body weight rate (%) of liver, lowering compared with the untreated group” value is “about 20%” and the “weight/body weight rate (%) of spleen, lowering compared with the untreated group” value is recorded as “about 20%”. Besides, in [7] (value as % of untreated), the “number of erythrocytes compared with the untreated group” value is given as “approximately 87%”, the “number of leukocytes compared with the untreated group” value was “approximately 50%” and the “number of platelets compared with the untreated group” value is on record as “approximately 70%”. Further, in [7] (hepatopathy marker), the “ALT, rise compared to the untreated group” value stood at 102% and the “AST, rise compared to the untreated group” value came to 46%. Also, the “median of survival time (MST)” value in data set [8] (GBS-01 250 mg/kg oral every day, gemcitabine 150 mg/kg i.p. twice a week, until all mice died) is on record as 86 days. In addition, the “prolongation of MST” value in data set [8] (against the untreated group (65 days)) is listed as 32.3%. For the same molecule, the tumor weight in [9] was found to be 1.24 g. Also, the average tumor size in [6] is listed as 68 mm^2. Moreover, the “ratio of CD133+, CD44+ cells (double positive) in tumor” value in [10] stood at 3.5%. In addition, the “ratio of CD44+, CD24+, CD326+ cells (triple positive) in tumor” value in data set [10] (average of 4 samples) was 1.6%.
